Each structure is given as a SMILES string.

The target in this test is SARS-CoV-2 3CL-protease (Severe acute respiratory syndrome coronavirus 2, UniProt P0DTD1). Put plainly: SARS-CoV-2 3C-like (3CL) protease fluorescence assay (FRET). The class given is biochemical. Particulars: recombinant SARS-CoV-2 3CL-protease 10 nM, TAMRA-[…]-Dabcyl-OH substrate, 30 min preincubation at RT, run in duplicate.
Experimental: SARS-CoV-2 3C-like (3CL) protease fluorescence assay (FRET): Recombinant SARS-CoV-2 3CL-protease was expressed and purified. […] Black, low volume, round-bottom, 384 well microplates were used. In a typical assay, 0.85 μL of test compound was dissolved in DMSO then incubated with SARS-CoV-2 3CL-protease (10 nM) in 10 μL assay buffer (50 mM HEPES [pH 7.5], 1 mM DTT, 0.01% BSA, 0.01% Triton-X 100) for 30 min at RT. Next, 10 μL of 3CL-protease substrate (40 μM) in assay buffer was added and the assays were monitored continuously for 1 h in an Envision multimode plate reader operating in fluorescence kinetics mode with excitation at 540 nm and emission at 580 nm at RT. No compound (DMSO only) and no enzyme controls were routinely included in each plate. All experiments were run in duplicate.
Data were fitted to normalized activity (variable slope) versus concentration fit in GraphPad Prism 7 to determine IC50.
For `COc1cccc2[nH]c(C(=O)N[C@@H](CCc3ccccc3)C(=O)N[C@H](C#N)C[C@@H]3CCNC3=O)cc12` [Example 8, N—((S)-1-(((S)-1-cyano-2-((S)-2-oxopyrrolidin-3-yl)ethyl)amino)-1-oxo-4-phenylbutan-2-yl)-4-methoxy-1H-indole-2-carboxamide], the IC50 (usually the point on the concentration scale where inhibition reaches its midpoint) was 0.1 to 1 µM.
In the case of `COc1cccc2[nH]c(C(=O)N[C@H](C(=O)N[C@H](C#N)C[C@@H]3CCNC3=O)C(C)C)cc12` [Example 7, N—((S)-1-(((S)-1-cyano-2-((S)-2-oxopyrrolidin-3-yl)ethyl)amino)-3-methyl-1-oxobutan-2-yl)-4-methoxy-1H-indole-2-carboxamide], the IC50 is over 1 µM.
Regarding `COc1cccc2[nH]c(C(=O)N[C@@H](CCSC)C(=O)N[C@H](C#N)C[C@@H]3CCNC3=O)cc12` [Example 12, N—((S)-1-(((S)-1-cyano-2-((S)-2-oxopyrrolidin-3-yl)ethyl)amino)-4-(methylthio)-1-oxobutan-2-yl)-4-methoxy-1H-indole-2-carboxamide], the IC50 was 0.1 to 1 µM.
The figure for `N#C[C@H](C[C@@H]1CCNC1=O)NC(=O)[C@H](CC1CCCCC1)NC(=O)c1cc2ccccc2o1` [Example 22, N—((S)-1-(((S)-1-cyano-2-((S)-2-oxopyrrolidin-3-yl)ethyl)amino)-3-cyclohexyl-1-oxopropan-2-yl)benzofuran-2-carboxamide] is over 1 µM; for `COc1cccc2[nH]c(C(=O)N[C@@H](CCCc3ccccc3)C(=O)N[C@H](C#N)C[C@@H]3CCNC3=O)cc12` [Example 11, N—((S)-1-(((S)-1-cyano-2-((S)-2-oxopyrrolidin-3-yl)ethyl)amino)-1-oxo-5-phenylpentan-2-yl)-4-methoxy-1H-indole-2-carboxamide] it is over 1 µM.
To `COc1cccc2[nH]c(C(=O)N[C@@H](CC3CCCCC3)C(=O)N[C@H](C#N)C[C@@H]3CCCNC3=O)cc12` [Example 14, N—((S)-1-(((S)-1-cyano-2-((S)-2-oxopiperidin-3-yl)ethyl)amino)-3-cyclohexyl-1-oxopropan-2-yl)-4-methoxy-1H-indole-2-carboxamide] belongs under 0.1 µM; to `COc1cccc2[nH]c(C(=O)N[C@@H](CC(C)C)C(=O)N[C@H](C#N)C[C@@H]3CCCNC3=O)cc12` [Example 16, N—((S)-1-(((S)-1-cyano-2-((S)-2-oxopiperidin-3-yl)ethyl)amino)-4-methyl-1-oxopentan-2-yl)-4-methoxy-1H-indole-2-carboxamide], under 0.1 µM; to `COc1cccc2[nH]c(C(=O)N[C@H](C(=O)N[C@H](C#N)C[C@@H]3CCNC3=O)C3CCCCC3)cc12` [Example 6, N—((S)-2-(((S)-1-cyano-2-((S)-2-oxopyrrolidin-3-yl)ethyl)amino)-1-cyclohexyl-2-oxoethyl)-4-methoxy-1H-indole-2-carboxamide], over 1 µM.
The figure for `COc1cccc2[nH]c(C(=O)N[C@@H](CC(F)(F)F)C(=O)N[C@H](C#N)C[C@@H]3CCNC3=O)cc12` [Example 25, N—((S)-1-(((S)-1-cyano-2-((S)-2-oxopyrrolidin-3-yl)ethyl)amino)-4,4,4-trifluoro-1-oxobutan-2-yl)-4-methoxy-1H-indole-2-carboxamide] is 0.1 to 1 µM; for `COc1cccc2[nH]c(C(=O)N[C@@H](Cc3ccccc3)C(=O)N[C@H](C#N)C[C@@H]3CCNC3=O)cc12` [Example 3, N—((S)-1-(((S)-1-cyano-2-((S)-2-oxopyrrolidin-3-yl)ethyl)amino)-1-oxo-3-phenylpropan-2-yl)-4-methoxy-1H-indole-2-carboxamide] it is 0.1 to 1 µM; for `COc1cccc2[nH]c(C(=O)N[C@H](C(=O)N[C@H](C#N)C[C@@H]3CCNC3=O)c3ccccc3)cc12` [Example 5, N—((S)-2-(((S)-1-cyano-2-((S)-2-oxopyrrolidin-3-yl)ethyl)amino)-2-oxo-1-phenylethyl)-4-methoxy-1H-indole-2-carboxamide] it is over 1 µM.
With `N#C[C@H](C[C@@H]1CCCNC1=O)NC(=O)[C@H](CC1CCCCC1)NC(=O)c1cc2ccccc2o1` [Example 15, N—((S)-1-(((S)-1-cyano-2-((S)-2-oxopiperidin-3-yl)ethyl)amino)-3-cyclohexyl-1-oxopropan-2-yl)benzofuran-2-carboxamide], the IC50 lay in the range of 0.1 to 1 µM.
To `COc1cccc2[nH]c(C(=O)N[C@@H](CSC)C(=O)N[C@H](C#N)C[C@@H]3CCNC3=O)cc12` [Example 24, N—((R)-1-(((S)-1-cyano-2-((S)-2-oxopyrrolidin-3-yl)ethyl)amino)-3-(methylthio)-1-oxopropan-2-yl)-4-methoxy-1H-indole-2-carboxamide] belongs 0.1 to 1 µM; to `COc1cccc2[nH]c(C(=O)N[C@@H](CC3CCCC3)C(=O)N[C@H](C#N)C[C@@H]3CCNC3=O)cc12` [Example 10, N—((S)-1-(((S)-1-cyano-2-((S)-2-oxopyrrolidin-3-yl)ethyl)amino)-3-cyclopentyl-1-oxopropan-2-yl)-4-methoxy-1H-indole-2-carboxamide], 0.1 to 1 µM.
The figure for `COc1cccc2[nH]c(C(=O)N[C@H](C(=O)N[C@H](C#N)C[C@@H]3CCNC3=O)C(C)(C)C)cc12` [Example 19, N—((S)-1-(((S)-1-cyano-2-((S)-2-oxopyrrolidin-3-yl)ethyl)amino)-3,3-dimethyl-1-oxobutan-2-yl)-4-methoxy-1H-indole-2-carboxamide] is over 1 µM; for `CC(C)C[C@H](NC(=O)c1cc2ccccc2o1)C(=O)N[C@H](C#N)C[C@@H]1CCNC1=O` [Example 13, N—((S)-1-(((S)-1-cyano-2-((S)-2-oxopyrrolidin-3-yl)ethyl)amino)-4-methyl-1-oxopentan-2-yl)benzofuran-2-carboxamide] it is over 1 µM; for `COc1cccc2[nH]c(C(=O)N[C@@H](Cc3ccccc3)C(=O)N[C@H](C#N)C[C@@H]3CCCNC3=O)cc12` [Example 18, N—((S)-1-(((S)-1-cyano-2-((S)-2-oxopiperidin-3-yl)ethyl)amino)-1-oxo-3-phenylpropan-2-yl)-4-methoxy-1_H-indole-2-carboxamide] it is 0.1 to 1 µM.
The figure for `CC(C)C[C@H](NC(=O)c1cc2ccccc2[nH]1)C(=O)N[C@H](C#N)C[C@@H]1CCNC1=O` [Example 2, N—((S)-1-(((S)-1-cyano-2-((S)-2-oxopyrrolidin-3-yl)ethyl)amino)-4-methyl-1-oxopentan-2-yl)-1H-indole-2-carboxamide] is 0.1 to 1 µM.

For the origin of these results see patent US20220048944A1, “FUNC[…] AS ANTIVIRAL AGENTS” (Enanta Pharmaceuticals, Inc., priority 2020, published 2022).
